This passage reports Ki results from patent US9840501B2, “Morpholin-pyridine derivatives” (Hoffmann-La Roche Inc., priority 2014, dated 2017).

SMILES strings stand for the structures.

For one test, the target named is rat TAAR1 (Rattus norvegicus (Rat), UniProt Q923Y9). The test is described as follows: Radioligand binding assay on rat TAAR1. The note with it: rat TAAR1, membranes of stably transfected HEK-293 cells; second value of the pair; read-out: Ki (μM) mouse/rat: rat. The method, then: (§1) For the construction of expression plasmids the coding sequences of human, rat and mouse TAAR 1 were amplified from genomic DNA essentially as described by Lindemann et al.. The Expand High Fidelity PCR System (Roche Diagnostics) was used with 1.5 mM Mg^2+ and purified PCR products were cloned into pCR2.1-TOPO cloning vector (Invitrogen) following the instructions of the manufacturer. PCR products were subcloned into the pIRESneo2 vector (BD Clontech, Palo Alto, Calif.), and expression vectors were sequence verified before introduction in cell lines.
(§2) For the generation of stably transfected cell lines HEK293 cells were transfected with the pIRESneo2 expression plasmids containing the TAAR coding sequences (described above) with Lipofectamine 2000 (Invitrogen) according to the instructions of the manufacturer, and 24 hrs post transfection the culture medium was supplemented with 1 mg/ml G418 (Sigma, Buchs, Switzerland). After a culture period of about 10 d clones were isolated, expanded and tested for responsiveness to trace amines (all compounds purchased from Sigma) with the cAMP Biotrak Enzyme immunoassay (EIA) System (Amersham) following the non-acetylation EIA procedure provided by the manufacturer.
Radioligand Binding Assay on Rat TAAR1
(§3) Membrane Preparation and Radioligand Binding.
(§4) Cells were released from culture flasks using trypsin/EDTA, harvested, washed twice with ice-cold PBS (without Ca^2+ and Mg^2+), pelleted at 1′000 rpm for 5 min at 4° C., frozen and stored at −80° C. Frozen pellets were suspended in 20 ml HEPES-NaOH (20 mM, pH 7.4) containing 10 mM EDTA and homogenized with a Polytron (PT 6000, Kinematica) at 14′000 rpm for 20 s. The homogenate was centrifuged at 48′000×g for 30 min at 4° C. Subsequently, the supernatant was removed and discarded, and the pellet resuspended in 20 ml HEPES-NaOH (20 mM, pH 7.4) containing 0.1 mM EDTA using the Polytron (20 s at 14′000 rpm). This procedure was repeated and the final pellet resuspended in HEPES-NaOH containing 0.1 mM EDTA and homogenized using the Polytron. Typically, aliquots of 2 ml membrane portions were stored at −80° C. With each new membrane batch the dissociation constant (Kd) was determined via a saturation curve. […] Nonspecific binding was defined as the amount of ^3[H]—(S)-4-[(ethyl-phenyl-amino)-methyl]-4,5-dihydro-oxazol-2-ylamine bound in the presence of 10 μM unlabeled ligand. All compounds were tested at a broad range of concentrations (10 pM to 10 μM) in duplicates. […] The 96 deep well plates were incubated for 1 hr at 4° C. Incubations were terminated by rapid filtration through Unifilter-96 plates (Packard Instrument Company) and glass filters GF/C (Perkin Elmer) presoaked for 1 hr in polyethylenimine (0.3%) and washed 3 times with 1 ml of cold binding buffer. After addition of 45 μl of Microscint 40 (PerkinElmer) the Unifilter-96 plate was sealed and after 1 hr the radioactivity counted using a TopCount Microplate Scintillation Counter (Packard Instrument Company).

The next test has as its target mouse TAAR1 (Mus musculus (Mouse), UniProt Q923Y8). The test is described as follows: Radioligand binding assay on mouse TAAR1. The conditions noted are these: mouse TAAR1, membranes of stably transfected HEK-293 cells; first value of the pair; read-out: Ki (μM) mouse/rat: mouse. The method, then:
as §1, §2
Radioligand Binding Assay on Mouse TAAR1
as §3
as §4, with “1,000” for “1′000”, “48,000×g” for “48′000×g”

Sequence of mouse TAAR1 (Q923Y8 whole entry): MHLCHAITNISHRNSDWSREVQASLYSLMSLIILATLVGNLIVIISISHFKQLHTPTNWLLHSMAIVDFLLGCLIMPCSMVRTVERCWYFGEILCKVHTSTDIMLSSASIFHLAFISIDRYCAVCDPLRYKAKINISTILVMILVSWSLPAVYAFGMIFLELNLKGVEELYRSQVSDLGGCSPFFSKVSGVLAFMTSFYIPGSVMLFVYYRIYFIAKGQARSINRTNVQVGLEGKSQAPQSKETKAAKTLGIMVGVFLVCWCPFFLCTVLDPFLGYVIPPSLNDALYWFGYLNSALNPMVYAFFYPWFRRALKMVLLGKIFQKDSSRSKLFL
Sequence of rat TAAR1 (Q923Y9 whole entry): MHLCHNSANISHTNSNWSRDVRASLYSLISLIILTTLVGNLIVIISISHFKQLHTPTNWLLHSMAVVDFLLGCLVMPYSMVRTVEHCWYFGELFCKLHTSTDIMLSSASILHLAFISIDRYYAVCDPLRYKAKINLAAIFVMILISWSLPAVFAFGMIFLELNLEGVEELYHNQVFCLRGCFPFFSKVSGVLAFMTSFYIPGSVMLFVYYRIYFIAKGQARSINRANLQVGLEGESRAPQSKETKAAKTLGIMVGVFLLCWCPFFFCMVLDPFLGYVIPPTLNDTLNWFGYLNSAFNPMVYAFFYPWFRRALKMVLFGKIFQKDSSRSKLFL

In the case of `Cc1cc(NC(=O)c2ccnc(C(F)(F)F)c2)cnc1C1CNCCO1` (racemic) [Example 117, (RS)—N-(5-Methyl-6-morpholin-2-yl-3-pyridyl)-2-(trifluoromethyl)pyridine-4-carboxamide], the Ki was determined as 1.41 µM on rat TAAR1 and 0.464 µM at mouse TAAR1.
As to `O=C(Nc1ccc([C@H]2CNCCO2)nc1)c1[nH]nc(OCC(F)(F)F)c1Cl` [Example 101, 4-Chloro-N-[6-[(2R)-morpholin-2-yl]-3-pyridyl]-3-(2,2,2-trifluoroethoxy)-1H-pyrazole-5-carboxamide], the Ki at rat TAAR1 was determined as 0.0225 µM.
On to `CCc1ncc(C(=O)Nc2ccc([C@H]3CNCCO3)nc2)cn1` [Example 57, 2-Ethyl-N-[6-[(2R)-morpholin-2-yl]-3-pyridyl]pyrimidine-5-carboxamide], for which the Ki is 2.4 µM on rat TAAR1 and 0.673 µM on mouse TAAR1.
The matching figures for `O=C(Nc1ccc([C@H]2CNCCO2)nc1)c1[nH]nc(C2CC2)c1Br` [Example 87, 4-Bromo-3-cyclopropyl-N-[6-[(2R)-morpholin-2-yl]-3-pyridyl]-1H-pyrazole-5-carboxamide]: 0.0291 µM and 0.0053 µM.
Turning to `CC(C)n1nc(OCC(F)(F)F)cc1C(=O)Nc1ccc([C@@H]2CNCCO2)nc1` [Example 93, 2-Isopropyl-N-[6-[(2S)-morpholin-2-yl]-3-pyridyl]-5-(2,2,2-trifluoroethoxy)pyrazole-3-carboxamide], the Ki at rat TAAR1 is 0.0023 µM; at mouse TAAR1, 0.0215 µM.
`Cc1n[nH]c(C(=O)Nc2ccc([C@@H]3CNCCO3)nc2)c1Cl` [Example 44, 4-Chloro-3-methyl-N-[6-[(2S)-morpholin-2-yl]-3-pyridyl]-1H-pyrazole-5-carboxamide]: the Ki on rat TAAR1 stood at 0.443 µM; at mouse TAAR1 it was 0.0239 µM.
In the case of `CC(C)Cc1n[nH]c(C(=O)Nc2ccc([C@@H]3CNCCO3)nc2)c1F` [Example 89, 4-Fluoro-3-isobutyl-N-[6-[(2S)-morpholin-2-yl]-3-pyridyl]-1H-pyrazole-5-carboxamide], the values for the Ki on rat TAAR1 and at mouse TAAR1 were 0.0297 µM and 0.0133 µM, respectively.
Take `CCOc1n[nH]c(C(=O)Nc2ccc(C3CNCCO3)nc2)c1Cl` (racemic) [Example 74, (RS)-4-Chloro-3-ethoxy-N-(6-morpholin-2-yl-3-pyridyl)-1H-pyrazole-5-carboxamide]: the Ki at rat TAAR1 worked out at 0.066 µM.
`Brc1ccc(Nc2ccc([C@H]3CNCCO3)nc2)nc1` [Example 47, N-(5-Bromo-2-pyridyl)-6-[(2R)-morpholin-2-yl]pyridin-3-amine]: the Ki at rat TAAR1 is 0.165 µM; at mouse TAAR1 it was 0.0039 µM.
For `CCc1n[nH]c(C(=O)Nc2ccc([C@H]3CNCCO3)nc2)c1C` [Example 66, (R)-3-Ethyl-4-methyl-N-(6-(morpholin-2-yl)pyridin-3-yl)-1H-pyrazole-5-carboxamide] the same measures were 0.0534 µM and 0.0113 µM.
`CCc1ncc(C(=O)Nc2ccc([C@@H]3CNCCO3)nc2)cn1` [Example 37, 2-Ethyl-N-[6-[(2S)-morpholin-2-yl]-3-pyridyl]pyrimidine-5-carboxamide]: the values for the Ki on rat TAAR1 and at mouse TAAR1 were 1.47 µM and 0.139 µM, respectively.
In the case of `CCc1n[nH]c(C(=O)Nc2ccc([C@@H]3CNCCO3)nc2)c1Cl` [Example 76, 4-Chloro-3-ethyl-N-[6-[(2S)-morpholin-2-yl]-3-pyridyl]-1H-pyrazole-5-carboxamide], the figures for the Ki on rat TAAR1 and at mouse TAAR1 were 0.0384 µM and 0.0063 µM, respectively.
`O=C(Nc1ccc(C2CNCCO2)nc1)c1cccc(Cl)c1` (racemic) [Example 12, (RS)-3-Chloro-N-(6-morpholin-2-yl-3-pyridyl)benzamide]: the Ki at rat TAAR1 was 0.0889 µM.
Consider `CCCc1n[nH]c(C(=O)Nc2cnc(C3CNCCO3)c(Cl)c2)c1Cl` (racemic) [Example 108, (RS)-4-Chloro-N-(5-chloro-6-morpholin-2-yl-3-pyridyl)-3-propyl-1H-pyrazole-5-carboxamide], for which the Ki on mouse TAAR1 is 0.0241 µM.
As for `O=C(Nc1ccc([C@@H]2CNCCO2)nc1)c1ccnc(C(F)(F)F)c1` [Example 34, N-[6-[(2S)-Morpholin-2-yl]-3-pyridyl]-2-(trifluoromethyl)pyridine-4-carboxamide], the Ki at rat TAAR1 stood at 0.147 µM.
With `O=C(Nc1ccc([C@@H]2CNCCO2)nc1)c1[nH]nc(OCC(F)(F)F)c1Cl` [Example 105, 4-Chloro-N-[6-[(2S)-morpholin-2-yl]-3-pyridyl]-3-(2,2,2-trifluoroethoxy)-1H-pyrazole-5-carboxamide], the Ki at rat TAAR1 is 0.0176 µM.
Same read-out and setting: in the case of `O=C(Nc1ccc(C2CNCCO2)nc1)c1[nH]nc(OCC(F)(F)F)c1Cl` (racemic) [Example 75, (RS)-4-Chloro-N-(6-morpholin-2-yl-3-pyridyl)-3-(2,2,2-trifluoroethoxy)-1H-pyrazole-5-carboxamide] it was 0.0133 µM; in that of `O=C(Nc1ccc([C@H]2CNCCO2)nc1)c1cccc(Cl)c1` [Example 52, 3-Chloro-N-[6-[(2R)-morpholin-2-yl]-3-pyridyl]benzamide], 0.0922 µM; in that of `O=C(Nc1ccc([C@@H]2CNCCO2)nc1)c1cccc(Cl)c1` [Example 32, 3-Chloro-N-[6-[(2S)-morpholin-2-yl]-3-pyridyl]benzamide], 0.0338 µM.
Turning to `CCOc1n[nH]c(C(=O)Nc2ccc([C@@H]3CNCCO3)nc2)c1Cl` [Example 106, 4-Chloro-3-ethoxy-N-[6-[(2S)-morpholin-2-yl]-3-pyridyl]-1H-pyrazole-5-carboxamide], the Ki at rat TAAR1 worked out at 0.137 µM.
The same measure, in the same setting: next, `Fc1cc(Nc2ccc(Cl)cn2)cnc1C1CNCCO1` (racemic) [Example 110, (RS)—N-(5-Chloro-2-pyridyl)-5-fluoro-6-morpholin-2-yl-pyridin-3-amine]: 1.1 µM.
`O=C(Nc1ccc([C@H]2CNCCO2)nc1)c1ccnc(C(F)(F)F)c1` [Example 54, N-[6-[(2R)-Morpholin-2-yl]-3-pyridyl]-2-(trifluoromethyl)pyridine-4-carboxamide]: the Ki on rat TAAR1 amounted to 0.283 µM.
On the same count and under the same terms, in the case of `FC(F)(F)c1ccc(Nc2cnc(C3CNCCO3)c(Cl)c2)nc1` (racemic) [Example 103, (RS)-5-Chloro-6-morpholin-2-yl-N-[5-(trifluoromethyl)-2-pyridyl]pyridin-3-amine] it was 0.122 µM.
Regarding `CCOc1n[nH]c(C(=O)Nc2ccc([C@H]3CNCCO3)nc2)c1Cl` [Example 100, 4-Chloro-3-ethoxy-N-[6-[(2R)-morpholin-2-yl]-3-pyridyl]-1H-pyrazole-5-carboxamide], the Ki at rat TAAR1 amounted to 0.123 µM.
With `O=C(Nc1ccc(C2CNCCO2)nc1)c1ccnc(C(F)(F)F)c1` (racemic) [Example 16, (RS)—N-(6-Morpholin-2-yl-3-pyridyl)-2-(trifluoromethyl)pyridine-4-carboxamide], on rat TAAR1, the Ki is 0.145 µM.
